# Source: patent publication US10093623B2, “Cyclic amides as MetAP-2 inhibitors” (MERCK PATENT GmbH, priority 2012, dated 2018)
# Target: MetAP-2 (Homo sapiens, UniProt P50579)
# Experiment: MetAP-2 activity measurement (coupled enzymatic reactions, Met-Arg-Ser substrate, dianisidine detection at 450 nm)
# Assay type: biochemical
# Conditions: Inhibition of MetAP-2; read-out: IC50 enzyme
# Protocol: MetAP-2 Activity Measurement
# The MetAP-2 activity is determined by coupling enzymatic reactions. The tripeptide Met-Arg-Ser (MAS) is employed as substrate. The methionine liberated is firstly converted into Metox and H2O2 by L-aminooxidase (AAO). In the second step, the peroxidase (POD) with the aid of the H2O2 catalyses the oxidation of the leukodye dianisidine to dianisidineox, the increase of which is detected photometrically at 450 nm.
# MetAP-2 activity can be recorded continuously as kinetics. The reaction scheme illustrates that one mol of dianisidineox is formed per mol of methionene. The MetAP-2 enzyme activity can therefore be calculated directly as A absorption per time unit. Qualification of the MetAP-2 activity (mol of Met/time unit) is possible with the aid of the dianisidineox extinction coefficient.
# The change in extinction per time unit is depicted graphically and a slope calculation is carried out in the visually linear region of the reaction.
# Chain of MetAP-2 (P50579 whole entry, species assumed): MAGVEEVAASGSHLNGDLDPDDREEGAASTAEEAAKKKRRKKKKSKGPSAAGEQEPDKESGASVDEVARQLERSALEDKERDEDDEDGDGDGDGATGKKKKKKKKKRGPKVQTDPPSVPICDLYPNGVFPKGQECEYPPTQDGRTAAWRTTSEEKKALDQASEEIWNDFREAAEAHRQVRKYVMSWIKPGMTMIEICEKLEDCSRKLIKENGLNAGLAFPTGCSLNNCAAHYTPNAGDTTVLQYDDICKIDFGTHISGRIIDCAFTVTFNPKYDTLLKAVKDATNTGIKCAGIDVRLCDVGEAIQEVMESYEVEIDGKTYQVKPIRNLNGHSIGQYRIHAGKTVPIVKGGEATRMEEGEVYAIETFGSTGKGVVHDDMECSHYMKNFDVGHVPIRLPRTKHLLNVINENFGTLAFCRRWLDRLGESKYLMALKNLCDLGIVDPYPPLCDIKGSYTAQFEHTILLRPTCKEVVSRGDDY
row,SMILES,IC50
1,"NC(=O)c1cccc(N2CCC(O)(C(=O)NCc3cccc(F)c3Cl)C2=O)c1 (centres unmarked) [A193, N-(2-Chloro-3-fluorobenzyl)-1-(3-carbamoylphenyl)-3-hydroxy-2-oxopyrrolidine-3-carboxamide]",10 to 1000 nM
2,"O=C1CCc2cc(N3CC[C@](O)(C(=O)NCc4cc(Cl)ccc4F)C3=O)ccc2N1 [B4, N-(5-Chloro-2-fluorobenzyl)-(S)-3-hydroxy-2-oxo-1-(2-oxo-1,2,3,4-tetrahydroquinolin-6-yl)-pyrrolidine-3-carboxamide]",10 to 1000 nM
3,"O=C(NCc1cc(F)cc(Cl)c1)C1(O)CCN(Cc2nc3ccccc3s2)C1=O (centres unmarked) [A270, N-(3-Chloro-5-fluorobenzyl)-1-benzothiazol-2-ylmethyl-3-hydroxy-2-oxopyrrolidine-3-carboxamide]",10 to 1000 nM
4,"NC(=O)c1c[nH]c2ccc(N3CC[C@](O)(C(=O)NCc4cc(F)cc(Cl)c4)C3=O)cc12 [A238, 5-[(S)-3-(3-Chloro-5-fluorobenzylcarbamoyl)-3-hydroxy-2-oxopyrrolidin-1-yl]-1H-indole-3-carboxamide]",10 to 1000 nM
5,"O=C1N(c2ccccc2)CCC1(O)CNCc1cc(F)cc(F)c1 (centres unmarked) [B46, 3-[(3,5-Difluorobenzylamino)-methyl]-3-hydroxy-1-phenyl-pyrrolidin-2-one]",10 to 1000 nM
6,"CC1(C)CN(c2ccccc2)C(=O)[C@@]1(O)C(=O)NCc1cc(F)cc(Cl)c1 [A101, N-(3-Chloro-5-fluorobenzyl)-(S)-3-hydroxy-4,4-dimethyl-2-oxo-1-phenylpyrrolidine-3-carboxamide]",> 10000 nM
7,"O=C(NCc1ccccn1)[C@]1(O)CCCN(Cc2cccc(F)c2F)C1=O [A260, N-(Pyridin-2-ylmethyl)-(R)-1-(2,3-difluorobenzyl)-3-hydroxy-2-oxopiperidine-3-carboxamide]",> 10000 nM
8,"O=C(NCc1cc(F)cc(Cl)c1)[C@]1(O)CCN(c2ccc3[nH]c(=O)ccc3c2)C1=O [B41, N-(3-Chloro-5-fluorobenzyl)-(R)-3-hydroxy-2-oxo-1-(2-oxo-1,2-dihydroquinolin-6-yl)pyrrolidine-3-carboxamide]",1000 to 10000 nM
9,"O=C(NCc1cc(F)cc(Cl)c1)C1(O)CCN(Cc2ccccc2)C1 (centres unmarked) [A121, N-(3-chloro-5-fluorobenzyl)-1-benzyl-3-hydroxypyrrolidine-3-carboxamide]",1000 to 10000 nM
10,"O=C1N(c2ccccc2)CCC1(O)CNCc1cc(F)cc(Cl)c1 (centres unmarked) [B29, 3-[(3-Chloro-5-fluorobenzylamino)methyl]-3-hydroxy-1-phenylpyrrolidin-2-one]",10 to 1000 nM
11,"O=C1N(Cc2cccc(F)c2F)CCC[C@]1(O)CNCc1cccc(F)c1 [B22, (S)-1-(2,3-Difluorobenzyl)-3-[(3-fluorobenzylamino)methyl]-3-hydroxypiperidin-2-one]",10 to 1000 nM
12,"CC(=O)Nc1ccc(N2CCC(O)(C(=O)NCCc3ccccc3C(F)(F)F)C2=O)cn1 (centres unmarked) [A143, N-[2-(2-Trifluoromethylphenyl)-ethyl]-1-(6-acetylaminopyridin-3-yl)-3-hydroxy-2-oxopyrrolidine-3-carboxamide]",10 to 1000 nM
13,"O=C(NCCc1cc(F)cc(Cl)c1)[C@@]1(O)CCN(c2ccc3[nH]ncc3c2)C1=O [A191, N-[2-(3-Chloro-5-fluorophenyl)-ethyl]-(S)-3-hydroxy-1-(1H-indazol-5-yl)-2-oxopyrrolidine-3-carboxamide]",10 to 1000 nM
14,"O=C(NCc1cc(F)cc(Cl)c1)[C@@]1(O)CCN(c2ccc3[nH]c(=O)ccc3c2)C1=O [B40, N-(3-Chloro-5-fluorobenzyl)-(S)-3-hydroxy-2-oxo-1-(2-oxo-1,2-dihydroquinolin-6-yl)pyrrolidine-3-carboxamide]",10 to 1000 nM
15,"OC1(CNCc2cccc(F)c2)CCCN(Cc2ccccc2)C1 (centres unmarked) [B20, 1-Benzyl-3-[(3-fluorobenzylamino)methyl]-piperidin-3-ol]",> 10000 nM
16,"CC(C)NC(=O)c1cc2cc(N3CC[C@@](O)(C(=O)NCc4cc(F)cc(Cl)c4)C3=O)ccc2[nH]1 [B89, N-Isopropyl-5-[(R)-3-(3-chloro-5-fluorobenzylcarbamoyl)-3-hydroxy-2-oxopyrrolidin-1-yl]-1H-indole-2-carboxamide]",> 10000 nM
17,"NC(=O)c1cccc(N2CCC(O)(C(=O)NCCc3cc(F)cc(F)c3)C2=O)c1 (centres unmarked) [A201, N-[2-(3,5-Difluorophenyl)ethyl]-1-(3-carbamoylphenyl)-3-hydroxy-2-oxopyrrolidine-3-carboxamide]",10 to 1000 nM

# Continued, values first:
row,IC50,SMILES
1,1000 to 10000 nM,"O=C(NCc1cc(F)cc(Cl)c1)C1(O)CCN([C@H]2CC[C@H](C(=O)O)CC2)C1=O (some centres unmarked) [A152, 4-[3-(3-Chloro-5-fluorobenzyl-carbamoyl)-3-hydroxy-2-oxo-pyrrolidin-1-yl]-cyclohexanecarboxylic acid]"
2,1000 to 10000 nM,"CCC(=O)Nc1ccc(N2CC[C@@](O)(C(=O)NCc3cc(F)cc(Cl)c3)C2=O)cn1 [A172, N-(3-Chloro-5-fluorobenzyl)-(R)-3-hydroxy-2-oxo-1-(6-propionylaminopyridin-3-yl)-pyrrolidine-3-carboxamide]"
3,1000 to 10000 nM,"CCOC(=O)[C@H]1CC[C@H](N2CCC(O)(C(=O)NCc3cc(F)cc(Cl)c3)C2=O)CC1 (some centres unmarked) [A148, Ethyl 4-[3-(3-chloro-5-fluorobenzylcarbamoyl)-3-hydroxy-2-oxopyrrolidin-1-yl]-cyclohexanecarboxylate]"
4,> 10000 nM,"N#Cc1ccc(N2CC[C@@](O)(C(=O)NCc3cc(F)cc(Cl)c3)C2=O)cn1 [A106, N-(3-Chloro-5-fluorobenzyl)-(R)-1-(6-cyanopyridin-3-yl)-3-hydroxy-2-oxopyrrolidine-3-carboxamide]"
5,10 to 1000 nM,"O=C(NCc1cc(F)cc(Cl)c1)C1(O)CCN(c2cnc3c(c2)OCCN3)C1=O (centres unmarked) [A118, N-(3-Chloro-5-fluorobenzyl)-1-(3,4-Dihydro-2H-pyrido[3,2-b]-1,4-oxazin-7-yl)-3-hydroxy-2-oxopyrrolidine-3-carboxamide]"
6,1000 to 10000 nM,"Cn1cncc1CN1CCC(O)(C(=O)NCc2cc(F)cc(Cl)c2)C1=O (centres unmarked) [A272, N-(3-Chloro-5-fluorobenzyl)-3-hydroxy-1-(3-methyl-3H-imidazol-4-ylmethyl)-2-oxo-pyrrolidine-3-carboxamide]"
7,10 to 1000 nM,"O=C1CCc2c(ccc(N3CCC(O)(C(=O)NCc4cc(F)cc(Cl)c4)C3=O)c2F)N1 (centres unmarked) [B124, N-(3-Chloro-5-fluorobenzyl)-1-(5-fluoro-2-oxo-1,2,3,4-tetrahydroquinolin-6-yl)-3-hydroxy-2-oxopyrrolidine-3-carboxamide]"
8,1000 to 10000 nM,"CC(=O)N1C[C@@H]2[C@H](C1)[C@H]2N1CCC(O)(C(=O)NCc2cc(F)cc(Cl)c2)C1=O (stereo partly drawn) [A231, N-(3-Chloro-5-fluorobenzyl)-1-((1S,5R,6S)-3-acetyl-3-aza-bicyclo[3.1.0]hex-6-yl)-3-hydroxy-2-oxopyrrolidine-3-carboxamide]"
9,> 10000 nM,"N#CCn1cc(N2CC[C@@](O)(C(=O)NCc3cc(F)cc(Cl)c3)C2=O)cn1 [B117, N-(3-Chloro-5-fluorobenzyl)-(R)-1-(1-cyanomethyl-1H-pyrazol-4-yl)-3-hydroxy-2-oxopyrrolidine-3-carboxamide]"
10,> 10000 nM,"N#Cc1cncc(N2CC[C@@](O)(C(=O)NCc3cc(F)cc(Cl)c3)C2=O)c1 [A98, N-(3-Chloro-5-fluorobenzyl)-(R)-1-(5-cyanopyridin-3-yl)-3-hydroxy-2-oxopyrrolidine-3-carboxamide]"
11,1000 to 10000 nM,"CCS(=O)(=O)N1C[C@@H]2[C@H](C1)[C@H]2N1CCC(O)(C(=O)NCc2cc(F)cc(Cl)c2)C1=O (stereo partly drawn) [A230, N-(3-Chloro-5-fluorobenzyl)-1-((1S,5R,6S)-3-ethanesulfonyl-3-azabicyclo[3.1.0]hex-6-yl)-3-hydroxy-2-oxopyrrolidine-3-carboxamide]"
12,10 to 1000 nM,"O=C(NC1CCC1)c1cccc(N2CC[C@](O)(C(=O)NCc3cc(F)cc(Cl)c3)C2=O)c1 [A163, N-(3-Chloro-5-fluorobenzyl)-(S)-1-(3-cyclobutylcarbamoyl-phenyl)-3-hydroxy-2-oxo-pyrrolidine-3-carboxamide]"
13,> 10000 nM,"O=C(O)CCN1CCC(O)(C(=O)NCc2cc(F)cc(Cl)c2)C1=O (centres unmarked) [A271, 3-[3-(3-Chloro-5-fluorobenzylcarbamoyl)-3-hydroxy-2-oxopyrrolidin-1-yl]-propionic acid]"
14,1000 to 10000 nM,"Cc1ccc(CN2CCC(O)(C(=O)NCc3cc(F)cc(Cl)c3)C2=O)n1C (centres unmarked) [A280, N-(3-Chloro-5-fluorobenzyl)-1-(1,5-Dimethyl-1H-pyrrol-2-ylmethyl)-3-hydroxy-2-oxo-pyrrolidine-3-carboxamide]"
15,10 to 1000 nM,"CCS(=O)(=O)Nc1cccc(N2CC[C@](O)(C(=O)NCc3cc(F)cc(Cl)c3)C2=O)c1 [A79, N-(3-Chloro-5-fluorobenzyl)-(S)-1-(3-ethanesulfonylaminophenyl)-3-hydroxy-2-oxopyrrolidine-3-carboxamide]"
16,10 to 1000 nM,"N#CCn1cc(N2CCC(O)(C(=O)NCc3cc(F)cc(Cl)c3)C2=O)cn1 (centres unmarked) [B87, N-(3-Chloro-5-fluorobenzyl)-1-(1-cyanomethyl-1H-pyrazol-4-yl)-3-hydroxy-2-oxopyrrolidine-3-carboxamide]"
17,1000 to 10000 nM,"CN(CCO)C(=O)c1cccc(N2CC[C@@](O)(C(=O)NCc3cc(F)cc(Cl)c3)C2=O)c1 [A102, N-(3-Chloro-5-fluorobenzyl)-(R)-3-hydroxy-1-{3-[(2-hydroxy-ethyl)methylcarbamoyl]phenyl}-2-oxopyrrolidine-3-carboxamide]"
18,1000 to 10000 nM,"CCS(=O)(=O)NC1CCCC(N2CCC(O)(C(=O)NCc3cc(F)cc(Cl)c3)C2=O)C1 (centres unmarked) [A128, N-(3-Chloro-5-fluorobenzyl)-1-(3-ethanesulfonylamino-cyclohexyl)-3-hydroxy-2-oxo-pyrrolidine-3-carboxamide]"
